Results: patent US20190389882A1, “INHIBITORS OF BETA SECRETASE” (Janssen Pharmaceutica NV, priority 2017, published 2019)

Key:
[1] = target: T1, β-secretase II (BACE2) (Homo sapiens, UniProt Q9Y5Z0); assay: Automated (CyclOps) biochemical assay BACE2
T1 sequence (Q9Y5Z0 63-518): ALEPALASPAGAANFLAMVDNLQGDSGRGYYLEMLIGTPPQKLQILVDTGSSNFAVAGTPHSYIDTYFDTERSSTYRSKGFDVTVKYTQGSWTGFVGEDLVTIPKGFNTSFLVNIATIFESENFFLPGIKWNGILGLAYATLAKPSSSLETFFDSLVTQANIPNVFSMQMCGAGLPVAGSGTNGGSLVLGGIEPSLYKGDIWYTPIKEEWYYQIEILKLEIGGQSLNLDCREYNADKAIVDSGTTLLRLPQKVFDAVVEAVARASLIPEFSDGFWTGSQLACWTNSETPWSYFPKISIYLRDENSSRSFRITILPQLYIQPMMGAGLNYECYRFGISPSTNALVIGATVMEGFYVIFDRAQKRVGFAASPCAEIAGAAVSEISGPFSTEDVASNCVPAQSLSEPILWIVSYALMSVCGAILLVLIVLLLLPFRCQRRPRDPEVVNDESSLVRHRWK

[2] = target: β-secretase I (BACE1) (Homo sapiens, UniProt P56817); assay: Automated (CyclOps) biochemical assay BACE1
β-secretase I (BACE1), sequence (P56817 46-501): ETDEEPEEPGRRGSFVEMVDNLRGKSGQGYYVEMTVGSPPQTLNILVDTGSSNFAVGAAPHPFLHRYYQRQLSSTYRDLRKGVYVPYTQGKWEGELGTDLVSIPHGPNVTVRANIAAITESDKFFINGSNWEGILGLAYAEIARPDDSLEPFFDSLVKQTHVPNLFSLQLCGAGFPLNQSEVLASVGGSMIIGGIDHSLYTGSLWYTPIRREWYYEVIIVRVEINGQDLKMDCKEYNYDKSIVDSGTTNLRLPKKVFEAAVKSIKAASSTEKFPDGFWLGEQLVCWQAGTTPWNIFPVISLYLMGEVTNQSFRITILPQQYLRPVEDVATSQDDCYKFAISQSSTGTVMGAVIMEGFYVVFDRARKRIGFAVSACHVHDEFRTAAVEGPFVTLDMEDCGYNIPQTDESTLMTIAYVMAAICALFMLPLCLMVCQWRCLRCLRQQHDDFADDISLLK

SMILES | IC50 [1] | IC50 [2]
COc1ncc(C(=O)N2CCN(c3cccnc3)CC2)c2c1C[C@]1(c3ccc(F)cc3F)N=C(N)SC[C@@H]1C2 [Compound 5] | 324 nM | 145 nM
COc1ncc(C(=O)N2CCC(C#N)C2)c2c1C[C@]1(c3ccc(F)cc3F)N=C(N)SC[C@@H]1C2 (stereo partly shown) [Compound 6] | 282 nM | 56.2 nM
COc1ncc(C(=O)N2CCN(c3nccs3)CC2)c2c1C[C@]1(c3ccc(F)cc3F)N=C(N)SC[C@@H]1C2 [Compound 7] | 871 nM | 324 nM
COc1ncc(C(=O)N2Cc3cccnc3C2)c2c1C[C@]1(c3ccc(F)cc3F)N=C(N)SC[C@@H]1C2 [Compound 8] | 3550 nM | 1000 nM
COc1ncc(C(=O)N2CC(C)OC(C)C2)c2c1C[C@]1(c3ccc(F)cc3F)N=C(N)SC[C@@H]1C2 (stereo partly shown) [Compound 9] | 2140 nM | 363 nM
COc1ncc(C(=O)N2CCN(C(=O)C3CC3)CC2)c2c1C[C@]1(c3ccc(F)cc3F)N=C(N)SC[C@@H]1C2 [Compound 10] | 1450 nM | 490 nM
COCC1CCN(C(=O)c2cnc(OC)c3c2C[C@H]2CSC(N)=N[C@@]2(c2ccc(F)cc2F)C3)CC1 [Compound 11] | 776 nM | 155 nM
COc1ncc(C(=O)N2CCS(=O)(=O)CC2)c2c1C[C@]1(c3ccc(F)cc3F)N=C(N)SC[C@@H]1C2 [Compound 12] | 832 nM | 501 nM
COc1ncc(C(=O)N2CCOC(c3cccc(C)c3)C2)c2c1C[C@]1(c3ccc(F)cc3F)N=C(N)SC[C@@H]1C2 (stereo partly shown) [Compound 13] | 309 nM | 69.2 nM
COc1ncc(C(=O)N2CCC(Oc3ccc(F)cc3)CC2)c2c1C[C@]1(c3ccc(F)cc3F)N=C(N)SC[C@@H]1C2 [Compound 14] | 38.9 nM | 11 nM
COc1ncc(C(=O)Nc2ccncc2)c2c1C[C@]1(c3ccc(F)cc3F)N=C(N)SC[C@@H]1C2 [Compound 16] | 138 nM | 53.7 nM
COc1ncc(C(=O)N2CCN(c3ccncc3)CC2)c2c1C[C@]1(c3ccc(F)cc3F)N=C(N)SC[C@@H]1C2 [Compound 17] | 2370 nM | 158 nM
COc1ncc(C(=O)N(C)Cc2ccncc2)c2c1C[C@]1(c3ccc(F)cc3F)N=C(N)SC[C@@H]1C2 [Compound 18] | 30.2 nM | 8.51 nM
COc1ncc(C(=O)N2C[C@H]3CC[C@@H](C2)O3)c2c1C[C@]1(c3ccc(F)cc3F)N=C(N)SC[C@@H]1C2 [Compound 19] | 117 nM | 18.6 nM
COc1ncc(C(=O)N2CCCCC2)c2c1C[C@]1(c3ccc(F)cc3F)N=C(N)SC[C@@H]1C2 [Compound 20] | 195 nM | 50.1 nM
COc1ncc(C(=O)N(C)c2ccncc2)c2c1C[C@]1(c3ccc(F)cc3F)N=C(N)SC[C@@H]1C2 [Compound 21] | 324 nM | 112 nM
COc1ncc(C(=O)N2CCCC(OC)C2)c2c1C[C@]1(c3ccc(F)cc3F)N=C(N)SC[C@@H]1C2 (stereo partly shown) [Compound 23] | 324 nM | 61.7 nM

Next, values leading:

IC50 [1] | IC50 [2] | SMILES
88.1 nM | 14.8 nM | COc1cccc(C2CCN(C(=O)c3cnc(OC)c4c3C[C@H]3CSC(N)=N[C@@]3(c3ccc(F)cc3F)C4)C2)c1 (single isomer, unassigned) [Compound 25]
63.1 nM | 61.7 nM | COc1cccc(N2CCN(C(=O)c3cnc(OC)c4c3C[C@H]3CSC(N)=N[C@@]3(c3ccc(F)cc3F)C4)CC2)c1 [Compound 24]
507 nM | 15.7 nM | COc1ncc(C(=O)N2CCC(c3ccncc3)C2)c2c1C[C@]1(c3ccc(F)cc3F)N=C(N)SC[C@@H]1C2 (stereo partly shown) [Compound 26]
4170 nM | 955 nM | COc1ncc(C(=O)N2CCN(C(C)=O)CC2)c2c1C[C@]1(c3ccc(F)cc3F)N=C(N)SC[C@@H]1C2 [Compound 27]
178 nM | 57.5 nM | COc1ncc(CNC(=O)c2ccc(C#N)cc2)c2c1C[C@]1(c3ccc(F)cc3F)N=C(N)SC[C@@H]1C2 [Compound 33]
537 nM | 219 nM | COc1ccccc1C(=O)NCc1cnc(OC)c2c1C[C@H]1CSC(N)=N[C@@]1(c1ccc(F)cc1F)C2 [Compound 34]
724 nM | 138 nM | COc1ncc(CNC(=O)c2ccncc2C(F)(F)F)c2c1C[C@]1(c3ccc(F)cc3F)N=C(N)SC[C@@H]1C2 [Compound 35]
36.3 nM | 21.9 nM | COc1ncc(CNC(=O)c2cnc(C(F)(F)F)nc2)c2c1C[C@]1(c3ccc(F)cc3F)N=C(N)SC[C@@H]1C2 [Compound 36]
70.8 nM | 25.1 nM | COc1ncc(CNC(=O)c2ncc(F)cc2F)c2c1C[C@]1(c3ccc(F)cc3F)N=C(N)SC[C@@H]1C2 [Compound 37]
115 nM | 19.1 nM | COc1ncc(CNC(=O)c2ccncc2F)c2c1C[C@]1(c3ccc(F)cc3F)N=C(N)SC[C@@H]1C2 [Compound 38]
389 nM | 182 nM | COc1cccc(C(=O)NCc2cnc(OC)c3c2C[C@H]2CSC(N)=N[C@@]2(c2ccc(F)cc2F)C3)n1 [Compound 39]
186 nM | 112 nM | COc1ncc(CNC(=O)c2cccnc2C)c2c1C[C@]1(c3ccc(F)cc3F)N=C(N)SC[C@@H]1C2 [Compound 40]
513 nM | 79.4 nM | COc1cc(C(=O)NCc2cnc(OC)c3c2C[C@H]2CSC(N)=N[C@@]2(c2ccc(F)cc2F)C3)c(OC)nn1 [Compound 41]
138 nM | 74.1 nM | COc1ncc(CNC(=O)c2cnoc2C(C)C)c2c1C[C@]1(c3ccc(F)cc3F)N=C(N)SC[C@@H]1C2 [Compound 42]
97.7 nM | 20.9 nM | COc1ncc(CNC(=O)c2cccnc2F)c2c1C[C@]1(c3ccc(F)cc3F)N=C(N)SC[C@@H]1C2 [Compound 43]
79.4 nM | 41.7 nM | COc1ncc(CNC(=O)CN2CCOCC2)c2c1C[C@]1(c3ccc(F)cc3F)N=C(N)SC[C@@H]1C2 [Compound 44]
29.5 nM | 8.51 nM | COc1ncc(CNC(=O)c2cccnc2)c2c1C[C@]1(c3ccc(F)cc3F)N=C(N)SC[C@@H]1C2 [Compound 45]
407 nM | 36.3 nM | CCOc1ncccc1C(=O)NCc1cnc(OC)c2c1C[C@H]1CSC(N)=N[C@@]1(c1ccc(F)cc1F)C2 [Compound 46]
209 nM | 25.7 nM | COc1ncccc1C(=O)NCc1cnc(OC)c2c1C[C@H]1CSC(N)=N[C@@]1(c1ccc(F)cc1F)C2 [Compound 47]
178 nM | 34.7 nM | COc1cc(OC)nc(C(=O)NCc2cnc(OC)c3c2C[C@H]2CSC(N)=N[C@@]2(c2ccc(F)cc2F)C3)n1 [Compound 49]
309 nM | 115 nM | COc1ncc(CNC(=O)c2ccncn2)c2c1C[C@]1(c3ccc(F)cc3F)N=C(N)SC[C@@H]1C2 [Compound 50]
